According to PubChem BioAssay AID276 (DTP/NCI, 2004):
Values joined by “and” are separate entries in the source; they are usually repeats but may differ in a detail not shown here. Equal entries are not always repeated. Toxic doses and inconclusive results are not listed.

System: B6C3F1 mice, Lewis lung carcinoma iv, survival T/C
Assay: NCI In Vivo Anticancer Drug Screen. Data for tumor model Lewis Lung Carcinoma (intravenous) in B6C3F1 mice
Details: endpoint: median survival time, schedule: Q01DX009 (ip), higher = longer survival
Protocol: The antitumor activity of compounds was measured in mice bearing transplantable tumors. Survival or tumor size were measured and the results are expressed as the measurement made in the treated group (T) divided by the measurement made in the vehicle treated control group (C). The tumor model used in this assay is Lewis Lung Carcinoma (intravenous) in B6C3F1 mice

[1] = dose: 25.0 mg/kg/injection, vehicle: water
[2] = dose: 50.0 mg/kg/injection, vehicle: water
[3] = dose: 100.0 mg/kg/injection, vehicle: water
[4] = dose: 200.0 mg/kg/injection, vehicle: water
[5] = dose: 12.5 mg/kg/injection, vehicle: saline with Tween-80
[6] = dose: 25.0 mg/kg/injection, vehicle: saline with Tween-80
[7] = dose: 50.0 mg/kg/injection, vehicle: saline with Tween-80
[8] = dose: 100.0 mg/kg/injection, vehicle: saline with Tween-80
[9] = dose: 200.0 mg/kg/injection, vehicle: saline with Tween-80
[10] = dose: 25.0 mg/kg/injection, vehicle: saline
[11] = dose: 50.0 mg/kg/injection, vehicle: saline
[12] = dose: 100.0 mg/kg/injection, vehicle: saline
[13] = dose: 200.0 mg/kg/injection, vehicle: saline
[14] = dose: 400.0 mg/kg/injection, vehicle: saline with Tween-80
[15] = dose: 6.25 mg/kg/injection, vehicle: saline with Tween-80
[16] = dose: 25.0 mg/kg/injection, vehicle: Klucel (hydroxypropylcellulose) (HPC)
[17] = dose: 50.0 mg/kg/injection, vehicle: Klucel (hydroxypropylcellulose) (HPC)
[18] = dose: 12.5 mg/kg/injection, vehicle: Klucel (hydroxypropylcellulose) (HPC)

CC(C)[C@](O)(C(=O)OCC1=CCN2CC[C@@H](O)[C@@H]12)[C@H](C)O
T/C [1]: 100 % of control
T/C [2]: 97 % of control
T/C [3]: 100 % of control
T/C [4]: 109 % of control
T/C (dose: 400.0 mg/kg/injection, vehicle: water): 102 % of control

CC(/C=C/c1ccccc1)=Nc1ccccc1
T/C [5]: 109 % of control
T/C [6]: 101 % of control
T/C [7]: 97 % of control
T/C [8]: 99 % of control
T/C [9]: 105 % of control

OCC(O)C(O)C(O)C(O)CO (stereo not given)
T/C (dose: 75.0 mg/kg/injection, vehicle: saline): 100 % of control
T/C (dose: 150.0 mg/kg/injection, vehicle: saline): 96 % of control
T/C (dose: 300.0 mg/kg/injection, vehicle: saline): 92 % of control
T/C (dose: 600.0 mg/kg/injection, vehicle: saline): 95 % of control
T/C (dose: 1200.0 mg/kg/injection, vehicle: saline): 98 % of control

NCCCNCCSP(=O)(O)O
T/C [5]: 98 % of control
T/C [6]: 98 % of control
T/C [7]: 95 % of control
T/C [8]: 106 % of control
T/C [9]: 105 % of control

CCCCCCCCCCCCN1C(C)=CS/C1=C\C=C\c1scc(C)[n+]1CCCCCCCCCCCC
T/C (dose: 1.56 mg/kg/injection, vehicle: saline with Tween-80): 90 % of control

O=c1ncccn1[C@@H]1O[C@H](CO)[C@H](O)C1O (stereo not given in full)
T/C [10]: 92 % of control and 96 % of control
T/C [11]: 88 % of control and 101 % of control
T/C [12]: 105 % of control
T/C [13]: 108 % of control and 119 % of control
T/C (dose: 400.0 mg/kg/injection, vehicle: saline): 97 % of control and 116 % of control

CC(=O)ON(C(C)=O)c1ccc(C(N)=O)cc1
T/C [6]: 102 % of control
T/C [7]: 93 % of control
T/C [8]: 107 % of control
T/C [9]: 99 % of control
T/C [14]: 106 % of control

CNC=O
T/C [12]: 106 % of control
T/C [13]: 110 % of control

O=C(O[Si](Cc1ccccc1)(Cc1ccccc1)Cc1ccccc1)N(CCCl)CCCl
T/C [15]: 100 % of control
T/C [5]: 108 % of control
T/C [6]: 90 % of control and 100 % of control
T/C [7]: 103 % of control
T/C [8]: 108 % of control and 123 % of control
T/C [9]: 124 % of control

C=C(OP(=O)(OC)OC)Sc1ccccc1C
T/C (dose: 0.06 mg/kg/injection, vehicle: Klucel (hydroxypropylcellulose) (HPC)): 105 % of control
T/C (dose: 0.12 mg/kg/injection, vehicle: Klucel (hydroxypropylcellulose) (HPC)): 104 % of control
T/C (dose: 0.25 mg/kg/injection, vehicle: Klucel (hydroxypropylcellulose) (HPC)): 110 % of control
T/C (dose: 0.37 mg/kg/injection, vehicle: Klucel (hydroxypropylcellulose) (HPC)): 100 % of control
T/C (dose: 0.5 mg/kg/injection, vehicle: Klucel (hydroxypropylcellulose) (HPC)): 89 % of control
T/C (dose: 0.75 mg/kg/injection, vehicle: Klucel (hydroxypropylcellulose) (HPC)): 91 % of control

O=C1N[C@H]2[C@H](CS[C@H]2CCCCC(=O)N(CCP(c2ccccc2)c2ccccc2)CCP(c2ccccc2)c2ccccc2)N1
T/C [16]: 93 % of control and 114 % of control
T/C [17]: 98 % of control and 88 % of control
T/C (dose: 100.0 mg/kg/injection, vehicle: Klucel (hydroxypropylcellulose) (HPC)): 102 % of control
T/C (dose: 200.0 mg/kg/injection, vehicle: Klucel (hydroxypropylcellulose) (HPC)): 92 % of control and 98 % of control

CC(=O)OC1(C)CC(C)C(=O)C(C(O)CC2CC(=O)NC(=O)C2)C1 (stereo not given)
T/C (dose: 15.6 micrograms/kg/injection, vehicle: saline): 96 % of control
T/C (dose: 31.3 micrograms/kg/injection, vehicle: saline): 95 % of control
T/C (dose: 62.5 micrograms/kg/injection, vehicle: saline): 100 % of control
T/C (dose: 125.0 micrograms/kg/injection, vehicle: saline): 100 % of control
T/C (dose: 250.0 micrograms/kg/injection, vehicle: saline): 107 % of control

O=S(=O)(CCl)OCCCl
T/C [15]: 103 % of control and 86 % of control
T/C [5]: 100 % of control and 111 % of control
T/C [6]: 99 % of control and 101 % of control and 109 % of control
T/C [7]: 104 % of control and 114 % of control and 88 % of control
T/C [8]: 118 % of control and 258 % of control

CC1OC(OC2CC(O)(C(=O)CO)Cc3c(O)c4c(c(O)c32)C(=O)c2ccccc2C4=O)CC(N)C1O (stereo not given)
T/C (dose: 0.06 mg/kg/injection, vehicle: water): 110 % of control
T/C (dose: 0.12 mg/kg/injection, vehicle: other): 105 % of control
T/C (dose: 0.12 mg/kg/injection, vehicle: saline): 108 % of control
T/C (dose: 0.12 mg/kg/injection, vehicle: water): 122 % of control
T/C (dose: 0.25 mg/kg/injection, vehicle: other): 113 % of control
T/C (dose: 0.25 mg/kg/injection, vehicle: saline): 103 % of control
T/C (dose: 0.25 mg/kg/injection, vehicle: water): 112 % of control
T/C (dose: 0.5 mg/kg/injection, vehicle: saline): 110 % of control
T/C (dose: 0.5 mg/kg/injection, vehicle: water): 120 % of control
T/C (dose: 1.0 mg/kg/injection, vehicle: water): 173 % of control

O=C(O)C1Cc2nc[nH]c2CN1CO (stereo not given)
T/C [5]: 109 % of control
T/C [6]: 104 % of control
T/C [7]: 99 % of control
T/C [8]: 114 % of control
T/C [9]: 103 % of control
T/C [14]: 98 % of control

NC(Cn1ccc(=O)c(O)c1)C(=O)O (stereo not given)
T/C (dose: 12.5 mg/kg/injection, vehicle: saline): 94 % of control
T/C [10]: 98 % of control
T/C [11]: 102 % of control
T/C [12]: 94 % of control
T/C [13]: 94 % of control

O=c1[nH]cnc2[nH]ncc12
T/C (dose: 12.5 mg/kg/injection, vehicle: suspension in saline): 95 % of control
T/C (dose: 25.0 mg/kg/injection, vehicle: suspension in saline): 105 % of control
T/C (dose: 50.0 mg/kg/injection, vehicle: suspension in saline): 95 % of control
T/C (dose: 100.0 mg/kg/injection, vehicle: suspension in saline): 106 % of control
T/C (dose: 200.0 mg/kg/injection, vehicle: suspension in saline): 112 % of control
T/C (dose: 400.0 mg/kg/injection, vehicle: suspension in saline): 120 % of control

CC(=O)NC(C=O)OCC=O (stereo not given)
T/C (dose: 6.25 mg/kg/injection, vehicle: water): 111 % of control
T/C (dose: 12.5 mg/kg/injection, vehicle: water): 104 % of control
T/C [1]: 97 % of control
T/C [2]: 97 % of control
T/C [3]: 91 % of control
T/C [4]: 103 % of control

NC(CSC(c1ccccc1)(c1ccccc1)c1ccccc1)C(=O)O (stereo not given)
T/C (dose: 3.12 mg/kg/injection, vehicle: Klucel (hydroxypropylcellulose) (HPC)): 116 % of control
T/C (dose: 6.25 mg/kg/injection, vehicle: Klucel (hydroxypropylcellulose) (HPC)): 96 % of control
T/C [18]: 111 % of control
T/C [16]: 102 % of control
T/C [17]: 107 % of control

CC(=O)OC1=NC(C)c2c1cc(OC(C)=O)[nH]c2=O (stereo not given)
T/C [18]: 102 % of control
T/C [16]: 98 % of control
T/C [17]: 95 % of control
